Test results published in US12258338B2, “Modulators of the integrated stress response pathway” (EVOTEC INTERNATIONAL GMBH, priority 2019, dated 2025).
≈ marks a conversion by molar mass, not a printed value. Read-outs that look alike come from different tables or passages of the source.

How the values were obtained:
ATF4 = experiment: HEK-ATF4 High Content Imaging assay (prevention of Tunicamycin induced ISR; ATF4 signal ratio between nucleus and cytoplasm); type: cell-based; conditions: Homo sapiens; Wild-type HEK293 cells, Tunicamycin induced ISR, 6 h; read-out: IIEK-ATF4 Activity
Summary of the method: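 Wild-type HEK293 cells in 0.3% FBS medium were co-treated with compounds and Tunicamycin (3.3 μM in prediluted medium, 11-fold over final) for 6 h at 37 °C. Fixed cells were immunostained for ATF4 with Hoechst nuclei; imaging gave nuclear/cytoplasmic ATF4 ratio, with nuclei counts as toxicity control.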

[1] = Thermodynamic (Equilibrium) solubility in selected buffer; type: physicochemical; conditions: Table 25; for solubility: aqueous buffer, thermodynamic from solid
Experimental: Protocol—Thermodynamic (Equilibrium) Solubility in Selected Buffer
Example compounds were tested in the Thermodynamic (Equilibrium) solubility in selected buffer assay. The test compound, in powder form, was weighted into a 4 mL glass vial and a calculated volume of selected medium was added to reach the target concentration of the solubility test (1 mg/mL). The solution was then stirred overnight at r.t. protected from the light. The solution was filtered through a 0.45 μm PTFE membrane at ambient temperature. An aliquot of the resulting filtrate was quantified using UPLC-UV method described below against a reference solution of the test compound, 0.8 mg/mL in DMSO. Media compositions: Phosphate buffer 50 mM (pH=2.0) […] of NaH2PO4, H2O in 200 mL of ultrapurified water adjusted at pH 2 with phosphoric acid 85%; Acetate buffer 50 mM (pH=5.5) 820 mg of anhydrous sodium acetate in 200 mL of ultrapurified water adjusted at pH 5.5 with acetic acid 99.8%; Phosphate buffer 50 mM (pH=7.4) 40.5 mL of Na2HPO4 0.1 M solution+9.5 mL of NaH2PO4 0.1 M solution. Analytical conditions: UPLC-UV-MS analyses were performed with a Waters Acquity UPLC HClass-PDA-QDa system using a reverse phase Acquity BEH C18 column (2.1 mm×50 mm, 1.7 μm; temperature: 40° C.) and a gradient of 10-95% B (A=0.1% formic acid in H2O; B=0.05% formic acid in ACN) over 1.8 min then 100% B for 0.8 min, with an injection volume of 0.4 μL at flow rate of 0.65 mL/min. UV chromatograms were recorded at 220 nm, 254 nm and 290 nm using a photo diode array detector. Mass spectra were recorded in the 150 to 900 M/Z range at a sampling rate of 10 scans per sec using a QDa detector. Data were integrated using Empower®3 software. Data Analysis: Equilibrium solubility of the test compound in the selected medium was calculated through the ratio of the surface area of the UV chromatographic peak of the compound in the filtrate to the surface of the UV chromatographic peak of the compound in the reference solution.

[2] = molecular target: T1, human ERG potassium channel (hERG) (Homo sapiens, UniProt Q12809); experiment: hERG channel tail current recording using in vitro Rapid ICE (automated patch-clamp, QPatch HTX); type: cell-based; conditions: Table 26
T1 construct: expressed in transfected cells; host or cells: HEK293, stably transfected, tetracycline-inducible promoter
Summary of the method: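 Automated patch clamp on tetracycline-induced HEK293 hERG cells; pulse −80 to −50 mV 200 ms, +20 mV 4.8 s, −50 mV 5 s tail, extracellular pH 7.4. Compound at 0.3, 3, 30 μM (0.3% DMSO), 5 min exposure; tail current versus vehicle gives % inhibition and estimated IC50.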

[3] = acetate buffer 50 mM, pH 5.5, read-out: Solubility (μg/mL) pH 5.5
[4] = phosphate buffer 50 mM, pH 2.0, read-out: Solubility (μg/mL) pH 2.0
[5] = phosphate buffer 50 mM, pH 7.4, read-out: Solubility (μg/mL) pH 7.4

T1 sequence (Q12809 whole entry): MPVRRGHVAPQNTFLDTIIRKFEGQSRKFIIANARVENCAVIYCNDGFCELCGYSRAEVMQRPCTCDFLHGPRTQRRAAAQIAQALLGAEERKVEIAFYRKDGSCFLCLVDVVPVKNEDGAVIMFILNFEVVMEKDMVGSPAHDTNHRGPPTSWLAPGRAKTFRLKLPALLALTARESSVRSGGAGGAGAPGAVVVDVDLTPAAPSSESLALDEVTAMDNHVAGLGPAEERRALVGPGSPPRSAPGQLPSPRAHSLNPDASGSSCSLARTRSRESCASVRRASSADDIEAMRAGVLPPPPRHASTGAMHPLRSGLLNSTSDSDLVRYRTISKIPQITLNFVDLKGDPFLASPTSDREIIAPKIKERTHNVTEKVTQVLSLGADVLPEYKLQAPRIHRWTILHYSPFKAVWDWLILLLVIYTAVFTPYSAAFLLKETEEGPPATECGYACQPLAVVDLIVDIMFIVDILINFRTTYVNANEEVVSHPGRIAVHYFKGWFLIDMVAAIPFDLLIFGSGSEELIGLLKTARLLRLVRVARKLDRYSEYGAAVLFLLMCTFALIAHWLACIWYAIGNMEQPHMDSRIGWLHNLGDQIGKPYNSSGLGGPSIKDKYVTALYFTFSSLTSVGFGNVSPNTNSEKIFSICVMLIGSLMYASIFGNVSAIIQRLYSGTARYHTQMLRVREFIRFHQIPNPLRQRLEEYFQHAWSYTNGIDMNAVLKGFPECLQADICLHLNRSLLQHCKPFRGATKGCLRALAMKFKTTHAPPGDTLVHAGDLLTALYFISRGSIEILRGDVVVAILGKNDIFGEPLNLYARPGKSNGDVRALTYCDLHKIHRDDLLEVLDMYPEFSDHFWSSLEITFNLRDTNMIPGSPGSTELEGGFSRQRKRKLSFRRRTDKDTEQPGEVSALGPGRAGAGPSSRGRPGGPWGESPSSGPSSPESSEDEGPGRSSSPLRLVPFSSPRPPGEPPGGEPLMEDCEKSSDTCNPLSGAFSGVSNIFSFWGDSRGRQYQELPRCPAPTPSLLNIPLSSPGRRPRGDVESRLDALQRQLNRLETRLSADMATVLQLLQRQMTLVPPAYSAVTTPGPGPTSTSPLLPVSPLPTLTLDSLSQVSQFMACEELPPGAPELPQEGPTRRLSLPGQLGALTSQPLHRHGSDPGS

| IC50 (ATF4) | solubility [1, 3] | solubility [1, 4] | solubility [1, 5] | Solubility (μg/mL) pH 2.0 ([1]; pH 2.0) | Structure (SMILES) | IC50 [2] |
| --- | --- | --- | --- | --- | --- | --- |
| 1 to 500 nM | 256 µg/mL (≈ 504 µM) | 982 µg/mL (≈ 1930 µM) | 132 µg/mL (≈ 260 µM) |  | O=C(COc1ccc(Cl)c(F)c1)N[C@H]1CC[C@H](c2nnc(N3CC[C@H](OC(F)(F)F)C3)o2)NC1 (single isomer, unassigned) [Example 110] | > 5000 nM |
| 1 to 500 nM | 9 µg/mL (≈ 17.7 µM) | 911 µg/mL (≈ 1790 µM) | 6 µg/mL (≈ 11.8 µM) |  | O=C(COc1ccc(Cl)c(F)c1)N[C@H]1CC[C@H](c2nnc(N3CC[C@@H](OC(F)(F)F)C3)o2)NC1 (single isomer, unassigned) [Example 111] | 1000 to 5000 nM |
| 1 to 500 nM | 60 µg/mL (≈ 117 µM) | 617 µg/mL (≈ 1200 µM) | 42 µg/mL (≈ 81.6 µM) |  | O=C(COc1ccc(Cl)c(C(F)F)c1)N[C@H]1CC[C@H](c2nnc(OCCOC(F)(F)F)o2)NC1 [Example 11, 2-[4-chloro-3-(difluoromethyl)phenoxy]-N-[(3S,6R)-6-{5-[2-(trifluoromethoxy)ethoxy]-1,3,4-oxadiazol-2-yl}piperidin-3-yl]acetamide] | > 5000 nM |
| 1 to 500 nM | 113 µg/mL (≈ 236 µM) | 651 µg/mL (≈ 1360 µM) | 105 µg/mL (≈ 219 µM) |  | Cc1cc(OCC(=O)N[C@H]2CC[C@H](c3nnc(OCCOC(F)(F)F)o3)NC2)ccc1Cl [Example 12, 2-(4-chloro-3-methylphenoxy)-N-[(3S,6R)-6-{5-[2-(trifluoromethoxy)ethoxy]-1,3,4-oxadiazol-2-yl}piperidin-3-yl]acetamide] | > 5000 nM |
| 1 to 500 nM | 318 µg/mL (≈ 694 µM) | 661 µg/mL (≈ 1440 µM) | 240 µg/mL (≈ 524 µM) |  | Cc1ccc(OCC(=O)N[C@H]2CC[C@H](c3nnc(OCCOC(F)(F)F)o3)NC2)cc1C [Example 13, 2-(3,4-dimethylphenoxy)-N-[(3S,6R)-6-{5-[2-(trifluoromethoxy)ethoxy]-1,3,4-oxadiazol-2-yl}piperidin-3-yl]acetamide] | > 5000 nM |
| 500 to 2000 nM | 814 µg/mL (≈ 1630 µM) | 616 µg/mL (≈ 1230 µM) | 606 µg/mL (≈ 1210 µM) |  | O=C(COc1ccc(C(F)(F)F)nc1)N[C@H]1CC[C@H](c2nnc(OCCOC(F)(F)F)o2)NC1 [Example 14, N-[(3S,6R)-6-{5-[2-(trifluoromethoxy)ethoxy]-1,3,4-oxadiazol-2-yl}piperidin-3-yl]-2-{[6-(trifluoromethyl)pyridin-3-yl]oxy}acetamide] | > 5000 nM |
| 1 to 500 nM | 9 µg/mL (≈ 18 µM) | 839 µg/mL (≈ 1680 µM) | 7 µg/mL (≈ 14 µM) |  | O=C(COc1ccc(Cl)c(F)c1)N[C@H]1CC[C@H](c2nnc(-c3ccc(C(F)(F)F)nc3)o2)NC1 [Example 52, 2-(4-chloro-3-fluorophenoxy)-N-[(3S,6R)-6-{5-[6-(trifluoromethyl)pyridin-3-yl]-1,3,4-oxadiazol-2-yl}piperidin-3-yl]acetamide] | 1 to 1000 nM |
| 500 to 2000 nM | 663 µg/mL (≈ 1350 µM) |  | 501 µg/mL (≈ 1020 µM) | quant.^# | O=C(COc1ccc(Cl)c(F)c1)N[C@H]1CC[C@H](c2nnc(C3CN(CC(F)(F)F)C3)o2)NC1 [Example 57, 2-(4-chloro-3-fluorophenoxy)-N-[(3S,6R)-6-{5-[1-(2,2,2-trifluoroethyl)azetidin-3-yl]-1,3,4-oxadiazol-2-yl}piperidin-3-yl]acetamide] | > 5000 nM |
| 1 to 500 nM | 47 µg/mL (≈ 95.7 µM) | 886 µg/mL (≈ 1800 µM) | 91 µg/mL (≈ 185 µM) |  | O=C(COc1ccc(Cl)c(Cl)c1)N[C@H]1CC[C@H](c2nnc([C@H]3C[C@@H](OC(F)F)C3)o2)NC1 [Example 60, 2-(3,4-dichlorophenoxy)-N-[(3S,6R)-6-(5-[(1s,3s)-3-(difluoromethoxy)cyclobutyl]-1,3,4-oxadiazol-2-yl}piperidin-3-yl]acetamide] | 1 to 1000 nM |
| 2000 to 15000 nM | 168 µg/mL (≈ 354 µM) | 909 µg/mL (≈ 1910 µM) | 102 µg/mL (≈ 215 µM) |  | O=C(COc1ccc(Cl)c(F)c1)N[C@H]1CC[C@H](c2nnc(OC3CCC(F)(F)C3)o2)NC1 (stereo partly drawn) [Example 68, 2-(4-chloro-3-fluorophenoxy)-N-[(3S,6R)-6-{5-[(3,3-difluorocyclopentyl)oxy]-1,3,4-oxadiazol-2-yl}piperidin-3-yl]acetamide] | 1000 to 5000 nM |
| 1 to 500 nM | 26 µg/mL (≈ 55.9 µM) | 713 µg/mL (≈ 1530 µM) | 22 µg/mL (≈ 47.3 µM) |  | O=C(COc1ccc(Cl)c(F)c1)N[C@H]1CC[C@H](c2nnc(OCCOC(F)F)o2)NC1 [Example 75, 2-(4-chloro-3-fluorophenoxy)-N-[(3S,6R)-6-{5-[2-(difluoromethoxy)ethoxy]-1,3,4-oxadiazol-2-yl}piperidin-3-yl]acetamide] | 1000 to 5000 nM |
| 1 to 500 nM | 98 µg/mL (≈ 203 µM) | 810 µg/mL (≈ 1680 µM) | 76 µg/mL (≈ 157 µM) |  | O=C(COc1ccc(Cl)c(F)c1)N[C@H]1CC[C@H](c2nnc(OCCOC(F)(F)F)o2)NC1 [Example 77, 2-(4-chloro-3-fluorophenoxy)-N-[(3S,6R)-6-{5-[2-(trifluoromethoxy)ethoxy]-1,3,4-oxadiazol-2-yl}piperidin-3-yl]acetamide] | 1000 to 5000 nM |
| 1 to 500 nM | 93 µg/mL (≈ 195 µM) | 717 µg/mL (≈ 1500 µM) | 62 µg/mL (≈ 130 µM) |  | CC(F)(F)CCCOc1nnc([C@H]2CC[C@H](NC(=O)COc3ccc(Cl)c(F)c3)CN2)o1 [Example 84, 2-(4-chloro-3-fluorophenoxy)-N-[(3S,6R)-6-{5-[(4,4-difluoropentyl)oxy]-1,3,4-oxadiazol-2-yl}piperidin-3-yl]acetamide] | 1000 to 5000 nM |
| 1 to 500 nM | 9 µg/mL (≈ 18 µM) | 918 µg/mL (≈ 1840 µM) | 6 µg/mL (≈ 12 µM) |  | O=C(COc1ccc(Cl)c(Cl)c1)N[C@H]1CC[C@H](c2nnc(OCCOC(F)(F)F)o2)NC1 [Example 85, 2-(3,4-dichlorophenoxy)-N-[(3S,6R)-6-{5-[2-(trifluoromethoxy)ethoxy]-1,3,4-oxadiazol-2-yl}piperidin-3-yl]acetamide] | 1000 to 5000 nM |
| 500 to 2000 nM | 294 µg/mL (≈ 615 µM) |  | 173 µg/mL (≈ 362 µM) | quant.^# | O=C(COc1ccc(Cl)c(F)c1)N[C@H]1CC[C@H](c2nnc(N3CC(C(F)(F)F)C3)o2)NC1 [Example 90, 2-(4-chloro-3-fluorophenoxy)-N-[(3S,6R)-6-{5-[3-(trifluoromethyl)azetidin-1-yl]-1,3,4-oxadiazol-2-yl}piperidin-3-yl]acetamide] | > 5000 nM |
| 1 to 500 nM | 378 µg/mL (≈ 811 µM) | 970 µg/mL (≈ 2080 µM) | 230 µg/mL (≈ 494 µM) |  | O=C(COc1ccc(Cl)c(F)c1)N[C@H]1CC[C@H](c2nnc(N3CC(OC4CC4)C3)o2)NC1 [Example 95, 2-(4-chloro-3-fluorophenoxy)-N-[(3S,6R)-6-[5-(3-cyclopropoxyazetidin-1-yl)-1,3,4-oxadiazol-2-yl]piperidin-3-yl]acetamide] | 1000 to 5000 nM |
| 1 to 500 nM |  |  |  |  | CN1C[C@@H](NC(=O)COc2ccc(Cl)c(F)c2)CC[C@@H]1c1nnc(OCCOC(F)(F)F)o1 [Example 101, 2-(4-chloro-3-fluorophenoxy)-N-[(3S,6R)-1-methyl-6-{5-[2-(trifluoromethoxy)ethoxy]-1,3,4-oxadiazol-2-yl}piperidin-3-yl]acetamide] | > 5000 nM |
| 1 to 500 nM |  |  |  |  | O=C(COc1ccc(C(F)F)c(Cl)c1)N[C@H]1CC[C@H](c2nnc(OCCOC(F)(F)F)o2)NC1 [Example 113, 2-[3-chloro-4-(difluoromethyl)phenoxy]-N-[(3S,6R)-6-{5-[2-(trifluoromethoxy)ethoxy]-1,3,4-oxadiazol-2-yl}piperidin-3-yl]acetamide] | 1000 to 5000 nM |
